The record followed here is ChEMBL document CHEMBL1130060, “Novel prodrugs of cyanamide that inhibit aldehyde dehydrogenase in vivo” (1997).

Each structure is given as a SMILES string.

The inhibition is the percentage by which the read-out fell short of the control. A low value points to a response near the control.

The target of experiment [1] is T1, Aldehyde dehydrogenase 1A1 (Rattus norvegicus) (UniProt P51647).
T1 sequence (whole entry): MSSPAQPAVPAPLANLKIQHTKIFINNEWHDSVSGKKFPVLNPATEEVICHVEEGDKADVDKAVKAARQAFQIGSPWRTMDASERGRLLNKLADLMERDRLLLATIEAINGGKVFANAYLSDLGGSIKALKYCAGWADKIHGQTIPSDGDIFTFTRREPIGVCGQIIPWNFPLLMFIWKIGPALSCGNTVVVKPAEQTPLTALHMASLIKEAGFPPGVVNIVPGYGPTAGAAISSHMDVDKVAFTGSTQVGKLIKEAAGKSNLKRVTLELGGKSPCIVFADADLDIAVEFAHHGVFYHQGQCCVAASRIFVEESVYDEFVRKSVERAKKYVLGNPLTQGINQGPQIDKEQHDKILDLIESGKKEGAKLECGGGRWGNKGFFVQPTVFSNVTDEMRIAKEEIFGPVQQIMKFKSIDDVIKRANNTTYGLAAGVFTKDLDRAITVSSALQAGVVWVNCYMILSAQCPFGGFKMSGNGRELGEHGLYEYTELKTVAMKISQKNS
Put plainly: Inhibitory activity against aldehyde dehydrogenase in rats. To be noted: concentration not given here.

Experiment [2] relates to Rattus norvegicus. Nature of the experiment: Blood EtOH level in rats following the administration of the compound. The experiment is classed as functional.
For experiment [3], the system named is Rattus norvegicus. Nature of the experiment: Blood acetaldehyde level in rats following the administration of the compound. Type of experiment: functional.

Take `C=CCSC(=N)N`: the inhibition in experiment [1] was determined as 88%.
Still for that read-out and setting: the same measure for `CC(C)CSC(=N)N`: 66%.
On the same count and under the same terms, the value for `CCCCSC(=N)N` was 82%.
For `CC(=O)NCCSC(=N)N`, the values for the Potency in the experiment on Rattus norvegicus [2] and in the experiment with Rattus norvegicus [3] were 50.1 mM and 0.067 mM, respectively.
